Experimental data reported in PMC11277004, “Di- and Triselenoesters—Promising Drug Candidates for the Future Therapy of Triple-Negative Breast Cancer” (International Journal of Molecular Sciences, 2024).

Columns and labels:
[1] = test system: human breast cancer cells MCF-7 and MDA-MB-231; parameters: method as in PMID 36077839; settings: 3 µM; cited from earlier work
[2] = test system: MCF-7 breast cancer cells; test: DNA biosynthesis assay ([3H]-thymidine incorporation), MCF-7; assay type: cell-based, human; settings: Homo sapiens, MCF7, 24 h, read-out: IC50, DNA biosynthesis
Description: (§1) The study of the antiproliferative properties (intensity of [^3H]-thymidine incorporation into cell DNA) of the tested derivatives against tested cell lines (MCF-7, MDA-MB-231, MCF-10A) was performed after 24 h incubation with varied concentrations of the tested compounds in the medium (0.5–5 µM) in 6-well plates (baseline seeding density: 5 × 10^5 cells/well). After 24 h the medium was removed, the cells were washed with PBS (Corning, Kennebunk, ME, USA), and a fresh medium was added. After that, the cells were treated with 0.5 µCi of tritium-labeled thymidine (specific activity 7 Ci/mmol) by incubating them with this compound for 4 h under the same conditions as the cell culture. In the first step, the medium was removed, and the cell monolayer was washed twice with 1 mL of 0.05 M Tris-HCl buffer pH 7.4 containing 0.11 M NaCl. To denature proteins, the cells were washed twice with 1 mL of 5% trichloroacetic acid (TCA) solution. Finally, cell lysis was performed by adding 1 mL of 0.1 M sodium hydroxide (NaOH) solution containing 1% sodium dodecyl sulfate (SDS) to each well. After five minutes, the obtained cell lysates were transferred to scintillation vials with 2 mL of scintillation fluid added to them beforehand. Radioactivity was measured using the Scintillation Counter 1900 TR, TRI-CARB (Packard, Perkin Elmer, Inc., San Jose, CA, USA). The intensity of DNA biosynthesis in the analyzed cells was expressed in terms of dpm/well. The result of the radioactivity measurement in the control cells (without the addition of tested compounds) was taken as 100%, while the values of cells incubated with the tested compounds were presented as a percentage of the control value.

[3] = test system: MCF-7 breast cancer cells; test: MTT cytotoxicity test, MCF-7; assay type: cell-based, human; settings: Homo sapiens, MCF7; MCF-7, 24 h incubation; read-out: IC50, cell viability (MTT)
Description: (§2) MCF-7 and MDA-MB-231 human breast cancer cell lines, as well as MCF-10A normal human breast epithelial cells, were acquired from the American Type Culture Collection (ATCC, Manassas, VA, USA). The characteristics of the breast cancer cell lines used in this study are compared in Table 1. MCF-7 and MDA-MB-231 cells were cultured in Dulbecco’s modified Eagle’s medium (Gibco, San Diego, CA, USA), while MCF-10A cells were cultured in the mammary epithelial cell growth medium with the following supplements: BPE, hEGF, insulin, hydrocortisone, GA-1000 (Lonza, Basel, Switzerland). All media were complemented by 10% of fetal bovine serum (FBS) and 1% of the following antibiotics: penicillin and streptomycin (both Gibco, San Diego, CA, USA). The cells were maintained in an incubator that provides the optimal growth conditions for the cell culture: 5% CO2, 37 °C, and humidity in a range of 90–95%. The cells were cultured in 100 mm plates (Sarstedt, Newton, NC, USA). Subsequently, after obtaining a subconfluent cell culture, the cells were detached with 0.05% trypsin with 0.02% EDTA (Gibco, San Diego, CA, USA). […] In this study, cells that obtained 80% confluence were used. The MTT assay was used to determine the cytotoxic effects of the compounds in the study on MCF-7 and MDA-MB-231 breast cancer cells as well as MCF-10A normal human breast epithelial cells based on Carmichael’s method. […] After this time, the medium was removed, and the cell monolayer was washed with warm phosphate-buffered saline (PBS) without calcium and magnesium. In the next step, PBS and MTT solution in PBS (5 mg/mL) were added to each well to obtain a final MTT concentration of 0.5 mg/mL, and then the cells were incubated for 4 h (37 °C temperature, 5% CO2, 90–95% humidity). After the incubation period, the contents of each well were removed, 1 mL of DMSO was added to dissolve the formazan, and then the plate with the added DMSO was mixed for 5–10 min on a microplate shaker (Boeco, Hamburg, Germany). Then, 10 µL of Sorensen’s glycine buffer (a solution of 0.1 M glycine and 0.1 M sodium chloride adjusted to pH 10.5 with 0.1 M sodium hydroxide) was added. The absorbance of the obtained solution was immediately measured at a wavelength of λ = 570 nm using a Thermo Scientific Evolution 201 UV–VIS spectrophotometer (Thermo Fisher Scientific, Waltham, MA, USA). The absorbance result obtained in the control cells (without the addition of the tested compounds) was taken as 100%, while the viability of cells incubated with the tested compounds was presented as a percentage of the control value.

[4] = test system: MCF-7, MDA-MB-231 and MCF-10A cells; test: Viability (MTT) and DNA biosynthesis, summary statements over the tested cell lines; assay type: cell-based, human; settings: DNA biosynthesis, vs EDAG-1 and EDAG-8
Description: The MTT assay was used to determine the cytotoxic effects of the compounds in the study on MCF-7 and MDA-MB-231 breast cancer cells as well as MCF-10A normal human breast epithelial cells based on Carmichael’s method. All cultured cell lines were treated with varied concentrations of the tested compounds in the medium (0.5–5 µM) and incubated for 24 h in an incubator providing optimal conditions for cell culture growth (37 °C temperature, 5% CO2, and 90–95% humidity) in 6-well plates (baseline seeding density: 5 × 10^5 cells/well). After this time, the medium was removed, and the cell monolayer was washed with warm phosphate-buffered saline (PBS) without calcium and magnesium. In the next step, PBS and MTT solution in PBS (5 mg/mL) were added to each well to obtain a final MTT concentration of 0.5 mg/mL, and then the cells were incubated for 4 h (37 °C temperature, 5% CO2, 90–95% humidity). After the incubation period, the contents of each well were removed, 1 mL of DMSO was added to dissolve the formazan, and then the plate with the added DMSO was mixed for 5–10 min on a microplate shaker (Boeco, Hamburg, Germany). Then, 10 µL of Sorensen’s glycine buffer (a solution of 0.1 M glycine and 0.1 M sodium chloride adjusted to pH 10.5 with 0.1 M sodium hydroxide) was added. The absorbance of the obtained solution was immediately measured at a wavelength of λ = 570 nm using a Thermo Scientific Evolution 201 UV–VIS spectrophotometer (Thermo Fisher Scientific, Waltham, MA, USA). The absorbance result obtained in the control cells (without the addition of the tested compounds) was taken as 100%, while the viability of cells incubated with the tested compounds was presented as a percentage of the control value.
The study of the antiproliferative properties (intensity of [^3H]-thymidine incorporation into cell DNA) of the tested derivatives against tested cell lines (MCF-7, MDA-MB-231, MCF-10A) was performed after 24 h incubation with varied concentrations of the tested compounds in the medium (0.5–5 µM) in 6-well plates (baseline seeding density: 5 × 10^5 cells/well). After 24 h the medium was removed, the cells were washed with PBS (Corning, Kennebunk, ME, USA), and a fresh medium was added. […] Radioactivity was measured using the Scintillation Counter 1900 TR, TRI-CARB (Packard, Perkin Elmer, Inc., San Jose, CA, USA). The intensity of DNA biosynthesis in the analyzed cells was expressed in terms of dpm/well. The result of the radioactivity measurement in the control cells (without the addition of tested compounds) was taken as 100%, while the values of cells incubated with the tested compounds were presented as a percentage of the control value.

[5] = test system: MCF-10A normal human breast epithelial cells; test: MTT cytotoxicity test, MCF-10A; assay type: cell-based; settings: Homo sapiens, 24 h incubation, read-out: IC50, cell viability (MTT)
Description: as §2

[6] = test system: MDA-MB-231 triple-negative breast cancer cells; test: DNA biosynthesis assay ([3H]-thymidine incorporation), MDA-MB-231; assay type: cell-based, human; settings: Homo sapiens, MDA-MB-231, 24 h, read-out: IC50, DNA biosynthesis
Description: as §1

[7] = test system: MCF-10A normal human breast epithelial cells; test: DNA biosynthesis assay ([3H]-thymidine incorporation), MCF-10A; assay type: cell-based; settings: Homo sapiens, 24 h, read-out: IC50, DNA biosynthesis
Description: as §1

[8] = test system: MDA-MB-231 triple-negative breast cancer cells; test: MTT cytotoxicity test, MDA-MB-231; assay type: cell-based, human
Description: as §2

Row | SMILES | cells in which the apoptotic process was triggered [1] | IC50 [2] [nM] | IC50 [3] [nM] | fold weaker antiproliferative activity than the most active derivatives [4] | IC50 [5] [nM] | IC50 [6] [nM] | IC50 [7] [nM] | IC50 ([8]; Homo sapiens, MDA-MB-231, 24 h incubation, read-out: IC50, cell viability (MTT)) [nM] | fold weaker cytotoxic activity than the most active compounds ([8]; MDA-MB-231, MTT, vs EDAG-8/EDAG-1) [fold]
1 | CC(=O)C[Se]C(=O)c1ccc(Cl)cc1 [EDA-71] | over 50% | – | – | – | – | – | – | – | –
2 | N#CC[Se]C(=O)c1ccc(C(=O)[Se]CC#N)cc1 [EDAG-7, Se,Se-bis(cyanomethyl) benzene-1,4-bis(carboselenoate)] | – | 1810 ± 110 | 3150 ± 210 | 2–3 fold | 4640 ± 240 | 2040 ± 160 | 2330 ± 20 | > 5000 | –
3 | N#CC[Se]C(=O)c1cc(C(=O)[Se]CC#N)cc(C(=O)[Se]CC#N)c1 [EDAG-10, Se,Se,Se-tris-(cyanomethyl) benzene-1,3,5-tris-(carboxyselenoate)] | – | 1950 ± 110 | 2600 ± 30 | 2–3 fold | 4180 ± 290 | 1560 ± 80 | 1600 ± 50 | – | ~4
